Laboratory results published in patent US11820787B2, “Benfotiamine derivatives in the treatment of alzheimer's disease” (SHANGHAI RAISING PHARMACEUTICAL CO., LTD., priority 2019, dated 2023).

Assays:
Aβ40 = Aβ40 content in culture supernatant of HEK293APP/sw overexpression cells (ELISA, adjusted to total protein); type: cell-based; details: for Aβ40 content: secreted by APP/293 (HEK293APP/sw) cells, 400 μM, treated for 24 h, blank control 127.81
Method: (§1) (1) BCA protein concentration assay kit is purchased from Beyotime, Aβ40 and AB42 test kits are purchased from Wako Company. Except the fetal bovine serum (FBS) is purchased from Shanghai Pulong Biotechnology Research and Development Co. Ltd., the other related reagents are purchased from Gibico Company.
(§2) (2) HEK293APP/sw overexpression cell culture: cells are cultured in 48 microwell plate with DMEM culture solution (including 10% FBS, 100 μg/mL G418 (Geneticin) and penicillin and streptomycin), and a 4 mM stock in DMEM is diluted with DMEM to 400 μM and added to cell culture medium by 500 μL/well at 70% cell density and treated for 24 h.
(§3) (3) After the supernatant of culture solution is added to the BCA reagent at room temperature for 30 minutes, the absorption value of each well is measured at the OD 570 nm by the microplate reader and the total protein concentration is calculated according to the protein standard curve. Meanwhile, the concentration of Aβ40 and Aβ42 in the supernatant of culture solution is measured. Briefly, the supernatant is added to the 96 microwell plate coated by primary antibodies and incubated at 4° C. for overnight. Then the solution in the 96 microwell plate is removed and washed, and HRP (horseradish oxide enzyme) marked antibody is added to the solution and incubated at 4° C. for 2 hours. The antibody is removed and the plate is washed. After TMB substrate is added to each well at room temperature for 30 minutes, and the stop buffer is added to each well. The absorption value of each well is measured at the OD 450 nm by the microplate reader and the concentrations of Aβ40 and Aβ42 are calculated according to the standard curves of Aβ40 and Aβ42 respectively, and the final concentration is obtained by adjusting the concentrations of Aβ40 and Aβ42 according to the total protein concentration.

Aβ42 = Aβ42 content in culture supernatant of HEK293APP/sw overexpression cells (ELISA, adjusted to total protein); type: cell-based; details: for Aβ42 content: secreted by APP/293 (HEK293APP/sw) cells, 400 μM, treated for 24 h, blank control 11.08
Method: as §1, §2, §3

Molecule	Aβ40 content (Aβ40) [pmol/L]	Aβ42 content (Aβ42) [pmol/L]	effect on the generation of Aβ40 peptides compared with blank control (Aβ40; APP/293 cells, in words)	effect on the generation of Aβ42 peptides compared with blank control (Aβ42; APP/293 cells, in words)
COc1cccc(C(=O)S/C(CCOP(=O)(O)O)=C(/C)N(C=O)Cc2cnc(C)nc2N)c1 [Example 1, (Z)-S-(2-(N-((4-amino-2-methylpyrimidin-5-yl)methyl)formamido)-5-(phosphonooxy)pent-2-en-3-yl)3-methoxybenzothioate]	135.09	12.14		
C/C(=C(\CCOP(=O)(O)O)SC(=O)c1ccccc1C)N(C=O)Cc1cnc(C)nc1N [Example 10, (Z)-S-(2-(N-((4-amino-2-methylpyrimidin-5-yl)methyl)formamido)-5-(phosphonooxy)pent-2-en-3-yl)2-methylbenzothioate]	112.32	9.78		
(Z)-S-(2-(N-((4-amino-2-methylpyrimidin-5-yl)methyl)formamido)-5-(phosphonooxy)pent-2-en-3-yl)2-iodobenzothioate [Example 19]	62.74	5.50		
C/C(=C(\CCOP(=O)(O)O)SC(=O)c1ccccc1)N(C=O)Cc1cnc(C)nc1N [Comparative Example 2, S-[2-[[(4-amino-2-methyl-5-pyrimidinyl)methyl]formylamino]-1-[2-(phosphonooxy)ethyl]-1-propenyl]ester, reference compound]	53.77	5.04	good effect on reducing the generation	good effect on reducing the generation
C=Cc1cccc(C(=O)S/C(CCOP(=O)(O)O)=C(/C)N(C=O)Cc2cnc(C)nc2N)c1 [Example 20, (Z)-S-(2-(N-((4-amino-2-methylpyrimidin-5-yl)methyl)formamido)-5-(phosphonooxy)pent-2-en-3-yl)3-vinylbenzothioate]	117.16	10.33		
C/C(=C(\CCOP(=O)(O)O)SC(=O)c1cccc(Cl)c1)N(C=O)Cc1cnc(C)nc1N [Example 13, (Z)-S-(2-(N-((4-amino-2-methylpyrimidin-5-yl)methyl)formamido)-5-(phosphonooxy)pent-2-en-3-yl)3-chlorobenzothioate]	69.35	6.37		
(Z)-S-(2-(N-((4-amino-2-methylpyrimidin-5-yl)methyl)formamido)-5-(phosphonooxy)pent-2-en-3-yl)2-bromobenzothioate [Example 18]	21.19	2.60		
C/C(=C(\CCOP(=O)(O)O)SC(=O)c1ccccc1[N+](=O)[O-])N(C=O)Cc1cnc(C)nc1N [Example 22, (Z)-S-(2-(N-((4-amino-2-methylpyrimidin-5-yl)methyl)formamido)-5-(phosphonooxy)pent-2-en-3-yl)2-nitrobenzothioate]	127.81	11.31		
C/C(=C(\CCOP(=O)(O)O)SC(=O)c1c(C)cccc1C)N(C=O)Cc1cnc(C)nc1N [Example 23, (Z)-S-(2-(N-((4-amino-2-methylpyrimidin-5-yl)methyl)formamido)-5-(phosphonooxy)pent-2-en-3-yl)2,6-dimethylbenzothioate]	143.18	12.64		
C/C(=C(\CCOP(=O)(O)O)SC(=O)c1ccc(Cl)cc1)N(C=O)Cc1cnc(C)nc1N [Example 15, (Z)-S-(2-(N-((4-amino-2-methylpyrimidin-5-yl)methyl)formamido)-5-(phosphonooxy)pent-2-en-3-yl)4-chlorobenzothioate]	60.27	7.16		
C/C(=C(\CCOP(=O)(O)O)SC(=O)c1c(F)cccc1F)N(C=O)Cc1cnc(C)nc1N [Example 4, (Z)-S-(2-(N-((4-amino-2-methylpyrimidin-5-yl)methyl)formamido)-5-(phosphonooxy)pent-2-en-3-yl)2,6-difluorobenzothioate]	133.25	8.86		
C/C(=C(\CCOP(=O)(O)O)SC(=O)c1ccc([N+](=O)[O-])cc1)N(C=O)Cc1cnc(C)nc1N [Example 11, (Z)-S-(2-(N-((4-amino-2-methylpyrimidin-5-yl)methyl)formamido)-5-(phosphonooxy)pent-2-en-3-yl)4-nitrobenzothioate]	60.98	5.21		
C/C(=C(\CCOP(=O)(O)O)SC(=O)c1ccc(O)cc1)N(C=O)Cc1cnc(C)nc1N [Example 3, (Z)-S-(2-(N-((4-amino-2-methylpyrimidin-5-yl)methyl)formamido)-5-(phosphonooxy)pent-2-en-3-yl)4-hydroxybenzothioate]	121.48	10.79		
C/C(=C(\CCOP(=O)(O)O)SC(=O)c1ccc(Br)cc1)N(C=O)Cc1cnc(C)nc1N [Example 17, (Z)-S-(2-(N-((4-amino-2-methylpyrimidin-5-yl)methyl)formamido)-5-(phosphonooxy)pent-2-en-3-yl)4-bromobenzothioate]	112.53	8.89		
COc1ccc(C(=O)S/C(CCOP(=O)(O)O)=C(/C)N(C=O)Cc2cnc(C)nc2N)cc1 [Example 12, (Z)-S-(2-(N-((4-amino-2-methylpyrimidin-5-yl)methyl)formamido)-5-(phosphonooxy)pent-2-en-3-yl)4-methoxybenzothioate]	41.60	3.92		
CCOc1ccccc1C(=O)S/C(CCOP(=O)(O)O)=C(/C)N(C=O)Cc1cnc(C)nc1N [Example 16]	42.76	5.93		
C/C(=C(\CCOP(=O)(O)O)SC(=O)c1cccc(Br)c1)N(C=O)Cc1cnc(C)nc1N [Example 5, (Z)-S-(2-(N-((4-amino-2-methylpyrimidin-5-yl)methyl)formamido)-5-(phosphonooxy)pent-2-en-3-yl)3-bromobenzothioate]	25.65	6.77		
C/C(=C(\CCOP(=O)(O)O)SC(=O)c1cccc(F)c1)N(C=O)Cc1cnc(C)nc1N [Example 8, (Z)-S-(2-(N-((4-amino-2-methylpyrimidin-5-yl)methyl)formamido)-5-(phosphonooxy)pent-2-en-3-yl)3-fluorobenzothioate]	87.33	8.35		
C/C(=C(\CCOP(=O)(O)O)SC(=O)c1cccc(C)c1)N(C=O)Cc1cnc(C)nc1N [Example 14, (Z)-S-(2-(N-((4-amino-2-methylpyrimidin-5-yl)methyl)formamido)-5-(phosphonooxy)pent-2-en-3-yl)3-methylbenzothioate]	97.97	6.41		
C/C(=C(\CCOP(=O)(O)O)SC(=O)c1ccc(F)cc1)N(C=O)Cc1cnc(C)nc1N [Example 7, (Z)-S-(2-(N-((4-amino-2-methylpyrimidin-5-yl)methyl)formamido)-5-(phosphonooxy)pent-2-en-3-yl)4-fluorobenzothioate]	152.06	13.08		
CCOc1ccc(C(=O)S/C(CCOP(=O)(O)O)=C(/C)N(C=O)Cc2cnc(C)nc2N)cc1 [Example 2, (Z)-S-(2-(N-((4-amino-2-methylpyrimidin-5-yl)methyl)formamido)-5-(phosphonooxy)pent-2-en-3-yl)4-ethoxybenzothioate]	93.07	7.19		
C/C(=C(\CCOP(=O)(O)O)SC(=O)c1ccccc1F)N(C=O)Cc1cnc(C)nc1N [Example 9, (Z)-S-(2-(N-((4-amino-2-methylpyrimidin-5-yl)methyl)formamido)-5-(phosphonooxy)pent-2-en-3-yl)2-fluorobenzothioate]	15.00			
C=Cc1ccc(C(=O)S/C(CCOP(=O)(O)O)=C(/C)N(C=O)Cc2cnc(C)nc2N)cc1 [Example 21, (Z)-S-(2-(N-((4-amino-2-methylpyrimidin-5-yl)methyl)formamido)-5-(phosphonooxy)pent-2-en-3-yl)4-vinylbenzothioate]	127.41	11.24		
C/C(=C(\CCOP(=O)(O)O)SC(=O)c1cccc([N+](=O)[O-])c1)N(C=O)Cc1cnc(C)nc1N [Example 6, (Z)-S-(2-(N-((4-amino-2-methylpyrimidin-5-yl)methyl)formamido)-5-(phosphonooxy)pent-2-en-3-yl)3-nitrobenzothioate]	81.05	3.31		
